# Measured values: US12472185B2, “Methods for killing antibiotic tolerant bacteria” (THE PENN STATE RESEARCH FOUNDATION, priority 2020, dated 2025)
# Where “and” joins values, the source holds several entries; their conditions need not be identical. Equal values may be shown once.
# What was measured:
# [1] = test system: E. coli BW25113 exponential cells; assay: Survival of exponentially-growing cells (drop assay); assay type: cell-based, Escherichia coli; conditions: 100 μM, 6 hr
# Experimental: (§1) FIG. 2. NPIMA eradicates Escherichia coli, Pseudomonas aeruginosa, and Staphylococcus aureus exponential cells. Survival after 6 hr for (a) E. coli BW25113 with NPIMA and 5-iodoindole at 100 μM, (b) P. aeruginosa PA14 with NPIMA and 5-iodoindole at 100 μM, and (c) S. aureus with NPIMA and 5-iodoindole at 200 μM. Asterisk indicates no viable cells detected. NPIMA, 5-nitro-3-phenyl-1H-indol-2-yl-methylamine hydrochloride.
# FIG. 8. NPIMA structure function relationships. Exponential cells of Escherichia coli BW25113 were treated with (a) 2-(aminomethyl) indole, and (b) 2-methyl-5-nitro-3-phenyl-1H-indole for 6 hr. NPIMA, 5-nitro-3-phenyl-1Hindol-2-yl-methylamine hydrochloride.
# (§2) For bacterial viability, cells were washed twice with 0.85% NaCl, resuspended in 1×PBS, and cell counts were determined via the drop assay (Donegan, Matyac, Seidler, & Porteous, 1991). For human cell viability, pre-cultured human cancer HT-29 cells were dispensed in 98 μl in 96-well plates with approximately 5,000 cells/well. NPIMA was added (2 μl) to produce concentrations of 5, 10, 100, and 200 μM. For controls, Triton X-100 (positive control) and DMSO (negative solvent control), were used, and the medium was used for background. Plates were incubated in a humidified incubator (37° C., 5% CO2) for 24 hr. Cell viability was determined via a cell counting kit (CCK-8 Kit, ab228554; Abcam), and cytotoxicity was determined via the lactate dehydrogenase (LDH) assay (LDH Assay Kit, MK401; Takara).
# E. coli persister cells [2] = conditions: 1 mM; Lee et al., 2016; cited from earlier work
# S. aureus cells = assay: Survival of cells (drop assay); assay type: cell-based, Staphylococcus aureus; conditions: 200 μM
# Experimental: as §1, §2
# [3] = test system: P. aeruginosa PA14 exponential cells; assay: Survival of exponentially-growing cells (drop assay); assay type: cell-based, Pseudomonas aeruginosa; conditions: 100 μM
# Experimental: as §1, §2
# [4] = test system: E. coli BW25113 persister cells; assay: Survival of persister cells (rifampicin/ampicillin generated); assay type: cell-based, Escherichia coli; conditions: 100 μM, 6 hr
# Experimental: FIG. 3. NPIMA kills Escherichia coli, Pseudomonas aeruginosa, persister cells. Survival of (a) E. coli BW25113 and (b) P. aeruginosa PA14 after treatment with NPIMA (100 μM), 5-iodoindole (5-II, 100 μM), and DMSO for 6 hr. Asterisk indicates no viable cells detected. DMSO, dimethyl sulfoxide; NPIMA, 5-nitro-3-phenyl-1H-indol-2-yl-methylamine hydrochloride.
# E. coli persister cells were prepared following our previous method (Kim, Yamasaki, et al., 2018; Kwan, Valenta, Benedik, & Wood, 2013). Exponentially-growing cells (turbidity of 0.8 at 600 nm) were treated with rifampicin (100 μg/ml for 30 min) to stop transcription, washed, and any remaining nonpersister cells were lysed by ampicillin in LB (100 μg/ml for 3 hr). Cells were harvested by centrifugation (17,000 g for 1 min) and washed with 1× phosphate-buffered saline buffer (PBS, 8 g NaCl, 0.2 g KCl, 1.15 g Na2HPO4, and 0.2 g KH2PO4 per 1,000 ml) twice to remove all possible carbon sources, then resuspended with 1×PBS. Natural E. coli persister cells were generated by treating stationary-phase cells (turbidity of 6 at 600 nm) with ampicillin (100 μg/ml) for 3 hr. P. aeruginosa PA14 persister cells were prepared by incubating to the stationary phase, diluting sixfold, and treating with carbonyl cyanide m-chlorophenylhydrazone (CCCP, 50 mg/ml stock solution in dimethly sulfoxide [DMSO]) to stop adenosine triphosphate (ATP) production (200 μg/ml for 3 hr), washed twice with 0.85% NaCl (5,000 g for 10 min), and any nonpersister cells were killed by ciprofloxacin (5 μg/ml) in LB for 3 hr. Following the antibiotic treatment, bacteria were washed twice with 0.85% NaCl (5,000 g for 10 min).
# For bacterial viability, cells were washed twice with 0.85% NaCl, resuspended in 1×PBS, and cell counts were determined via the drop assay (Donegan, Matyac, Seidler, & Porteous, 1991). […] Cell viability was determined via a cell counting kit (CCK-8 Kit, ab228554; Abcam), and cytotoxicity was determined via the lactate dehydrogenase (LDH) assay (LDH Assay Kit, MK401; Takara).
# S. aureus ATCC29213 = assay: Minimum inhibitory concentration (MIC); assay type: cell-based; conditions: Staphylococcus aureus, LB, 24 hr
# Experimental: (§3) The bacteria used in this study are E. coli K-12 BW25113 (Baba et al., 2006), S. aureus ATCC29213, and P. aeruginosa PA14 (Liberati et al., 2006). Lysogeny broth (LB; Bertani, 1951) was used at 37° C. for culturing the bacteria. 2-(Aminomethyl)-indole was obtained from Sigma-Aldrich (catalog number 563838), and 2-methyl-5-nitro-3-phenyl-1H-indole was obtained from ChemBridge (San Diego, CA).
# (§4) To determine the MICs of NPIMA and 5-iodoindole for E. coli K-12, S. aureus, and P. aeruginosa PA14, cells were inoculated into LB at varying concentrations and grown for 24 hr. The MIC was determined as the lowest concentration that prevented an increase in growth as evidenced by a lack of change of turbidity.
# P. aeruginosa PA14 = assay: Minimum inhibitory concentration (MIC); assay type: cell-based; conditions: Pseudomonas aeruginosa, LB, 24 hr
# Experimental: as §3, §4
# E. coli K-12 BW25113 = assay: Minimum inhibitory concentration (MIC); assay type: cell-based; conditions: Escherichia coli, LB, 24 hr
# Experimental: as §3, §4
# E. coli persister cells [5] = assay: Re-test of resuscitation hits in minimal alanine medium, 96-well plates; assay type: cell-based, Escherichia coli; conditions: 100 μM
# Experimental: ChemBridge screen to identify resuscitation compounds. To identify compounds that resuscitate E. coli persister cells, the DIVERset Library from ChemBridge (San Diego, CA) containing 10,000 druglike compounds with high pharmacophore diversity was evaluated by adding 4 μL of each compound (final concentration 100 μM, dissolved in DMSO) to 186 μL of LB in 96 well plates and then adding 10 μL of persister cells. The negative control was 2 vol % DMSO. Resuscitation was calculated as the change in turbidity at 600 nm. The compounds that were identified initially were re-tested in M9 minimal medium with 5× alanine (24).
# [6] = test system: E. coli BW25113 persister cells; assay: Single-cell persister resuscitation; assay type: cell-based, Escherichia coli; conditions: 100 μM, M9 alanine (5×) agarose gel pads, 6 h
# Source text: FIG. 12. RluD increases persister resuscitation by increasing ribosomes for resuscitation. (A) Single-cell persister resuscitation as determined using light microscopy (Zeiss Axio Scope.A1). The fold-change in resuscitation is relative to BW25113 with DMSO for BW25113 with BPOET, relative to BW25113 for the ΔrluD mutant, relative to BW25113/pCA24N for the strain producing RluD from pCA24N plasmid in BW25113, and relative to MG1655 for ΔrybB. M9 glucose (0.4%) agarose gel pads were used for all the strains except BW25113 with BPOET where M9 alanine (5×) agarose gel pads including 100 μM of BPOET or DMSO were used. The results are the combined observations from two independent experiments after 6 h for the BW25113 with BPOET, after 4 h for BW25113 and its deletion mutants, and after 6 h for cells harboring pCA24N and its derivatives as well as for MG1655 and MG1655 ΔrybB. Error bars indicate standard deviations. (B) Active 70S ribosomes in single persister cells for MG1655-ASV/pCA24N-rluD (“RluD”) VS. MG1655-ASV/pCA24N (“Empty”). Cells are shown on agarose gel pads at time 0 for resuscitation; i.e., after the formation of persister cells. Representative results from three independent cultures are shown.
# Single-cell persister resuscitation. As described previously (19), 5 μL of cell populations consisting of 100% persister cells were added to 1.5% agarose gel pads containing either M9 medium with glucose (0.4 wt %) or alanine (5×) as a carbon source (24), and resuscitation was monitored at 37° C. via a light microscope (Zeiss Axio Scope.A1, bl_ph channel at 1000 ms exposure).
# Table 5. Single persister cell resuscitation. Single-cell persister resuscitation as determined using light microscopy (Zeiss Axio Scope.A1) using agarose gel pads. The fold-change in resuscitation is relative to BW25113 with DMSO for BW25113 with BPOET, relative to BW25113 for the ΔrluD, relative to BW25113/pCA24N for the strain producing RluD from pCA24N in BW25113, and relative to MG1655 for ΔrybB. […]
# E. coli persister cells [7] = assay: ChemBridge screen for persister cell killing; assay type: cell-based, Escherichia coli; conditions: 100 μM, 24 hr
# Experimental: FIG. 1. […] Escherichia coli persister cells were treated for 24 hr at 100 μM with: • 1: N-(3,4-dichlorophenyl)-N′-(3-fluorophenyl) thiourea; • 2: 2-({2-[(4-bromophenyl)amino]-4-quinazolinyl}amino)ethanol hydrochloride; • 3: 2-[(6-phenyl-2,3,4,9-tetrahydro-1H-carbazol-1-yl)amino] ethanol; • 4: 1-(3,6-dichloro-9H-carbazol-9-yl)-3-(2-methyl-1H-imidazol-1-yl)-2-propanol; • 5: N-[2-(4-fluorophenyl)ethyl]-N′-(4-nitrophenyl) thiourea; • 6: N-(4-chlorobenzyl)-N′-4-pyridinylthiourea; • 7: N′-(3,5-dichloro-2-hydroxybenzylidene)-2-oxo-4-phenyl-3-pyrrolidinecarbohydrazide; and • 8: [(5-nitro-3-phenyl-1H-indol-2-yl)methyl]amine hydrochloride (NPIMA, structure shown in inset).
# To identify compounds that kill E. coli persister cells, 10,000 compounds of the DIVERset Library from ChemBridge (San Diego, CA) were tested by adding 4 μl of each (in DMSO, final concentration 100 μM) to 186 μl of LB in 96-well plates along with 10 μl of persister cells; the persister cells were added after the ChemBridge chemical since LB wakes persister cells (Kim, Yamasaki, et al., 2018). For the negative control, pure DMSO (final concentration 2 vol %) was used. The degree of inhibition was determined by the change in turbidity at 600 nm after 24 hr. The best 26 compounds were re-tested with the same conditions.
# To screen directly for killing persister cells, a high-throughput approach using 96-well microtiter plates was devised that consisted of (a) washing persister cells formed from exponentially-growing cells using rifampicin pretreatment followed by ampicillin treatment, (b) adding 10 μl of the persister cells to 190 μl of LB containing one each of the 10,000 compounds of the DiverSet library dissolved in dimethyl sulfoxide (100 μM final concentration), and (c) monitoring for growth via change in turbidity for 24 hr. With this approach, we allowed for up to a 140-fold change in turbidity (0.005 could be increased to 0.69).
structure (smiles),measurement,setting,value
NCc1cc2ccccc2[nH]1 [2-(aminomethyl)-indole],killing of exponential E. coli cells,[1],unable to kill E. coli
Cc1[nH]c2ccc([N+](=O)[O-])cc2c1-c1ccccc1 [2-methyl-5-nitro-3-phenyl-1H-indole],killing of exponential E. coli cells,[1],unable to kill E. coli
"Ic1ccc2[nH]ccc2c1 [5-iodoindole, reference compound]",persisters killed,E. coli persister cells [2],99.993%
same,killing of S. aureus,S. aureus cells,ineffective
same,killing of P. aeruginosa,[3],ineffective
same,killing of exponential E. coli cells,[1],much less effective
same,killing of E. coli persister cells,[4],much less effective
same,MIC,S. aureus ATCC29213,2000 µM
same,MIC,P. aeruginosa PA14,2000 µM
same,MIC,E. coli K-12 BW25113,2000 µM
"CCn1c(SCC(=O)c2ccc(Br)cc2)nc2sc3c(c2c1=O)CCCC3 [BPOET, 2-{[2-(4-bromophenyl)-2-oxoethyl]thio}-3-ethyl-5,6,7,8-tetrahydro[1]benzothieno[2,3-d]pyrimidin-4(3H)-one]",increase in persister cell waking based on turbidity,E. coli persister cells [5],44 fold
same,% waking,[6],20 ± 13%
same,Fold-change in resuscitation relative to BW25113 with DMSO,[6],4 fold and 4 ± 3 fold
same,Waking cells,[6],38 ± 18
"Fc1cccc(NC(=S)Nc2ccc(Cl)c(Cl)c2)c1 [compound 1, N-(3,4-dichlorophenyl)-N′-(3-fluorophenyl) thiourea]","persister killing, second screen (FIG. 1)",E. coli persister cells [7],Most effective
"Cl.OCCNc1nc(Nc2ccc(Br)cc2)nc2ccccc12 [compound 2, 2-({2-[(4-bromophenyl)amino]-4-quinazolinyl}amino)ethanol hydrochloride]","persister killing, second screen (FIG. 1)",E. coli persister cells [7],Most effective
"OCCNC1CCCc2c1[nH]c1ccc(-c3ccccc3)cc21 (centres unmarked) [compound 3, 2-[(6-phenyl-2,3,4,9-tetrahydro-1H-carbazol-1-yl)amino] ethanol]","persister killing, second screen (FIG. 1)",E. coli persister cells [7],Most effective
"Cc1nccn1CC(O)Cn1c2ccc(Cl)cc2c2cc(Cl)ccc21 (centres unmarked) [compound 4, 1-(3,6-dichloro-9H-carbazol-9-yl)-3-(2-methyl-1H-imidazol-1-yl)-2-propanol]","persister killing, second screen (FIG. 1)",E. coli persister cells [7],Most effective
"S=C(NCc1ccc(Cl)cc1)Nc1ccncc1 [compound 6, N-(4-chlorobenzyl)-N′-4-pyridinylthiourea]","persister killing, second screen (FIG. 1)",E. coli persister cells [7],Most effective
"O=C1NCC(c2ccccc2)C1C(=O)N/N=C\c1cc(Cl)cc(Cl)c1O (centres unmarked) [compound 7, N′-(3,5-dichloro-2-hydroxybenzylidene)-2-oxo-4-phenyl-3-pyrrolidinecarbohydrazide]","persister killing, second screen (FIG. 1)",E. coli persister cells [7],Most effective
